Results on 22 compounds are retold here after US20230248037A1, “FLAVOUR ADDITIVES” (MARS, INCORPORATED, priority 2012, published 2023).

The first assay relates to T1R1/T1R3 receptor (umami receptor). As to the kind of experiment: In vitro screening for binding and activation of the umami receptor. In kind it is cell-based, cat. As to conditions: feline umami receptor. The procedure:
In vitro screening was carried out in order to establish which first amino acids bind and activate the umami receptor.
In vitro screening was carried out in order to establish which second amino acids bind and activate the umami receptor.
For `N[C@@H](CC(=O)O)C(=O)O` [aspartic acid], the “binding to the feline umami receptor” value was “does not bind”.

Regarding `N[C@@H](CCC(=O)O)C(=O)O` [glutamic acid], the “binding to the feline umami receptor” value is given as “does not bind”.

Still in this assay, the particulars now being: in silico modelling and in vitro assays using a non-human umami receptor; screening in the presence of 0.2 mM IMP.
Turning to `C[C@H](N)C(=O)O` [alanine], the “binding to and activation of the umami receptor” value (from here on “binding to and activation”) is “able to bind to and activate the umami receptor to different extents”.

As to `NC(=O)C[C@H](N)C(=O)O` [asparagine], the “binding to and activation” value was “able to bind to and activate the umami receptor to different extents”. On the same count and under the same terms, the value for `N[C@@H](CS)C(=O)O` [cysteine] was “able to bind to and activate the umami receptor to different extents”.

On to `NCC(=O)O` [glycine], for which the “binding to and activation” value is “able to bind to and activate the umami receptor to different extents”.

In the case of `N[C@@H](Cc1c[nH]cn1)C(=O)O` [histidine], the “binding to and activation” value is “able to bind to and activate the umami receptor to different extents”. On to `CC(C)C[C@H](N)C(=O)O` [leucine], for which the “binding to and activation” value is “able to bind to and activate the umami receptor to different extents”. The same measure, in the same setting: the value for `CSCC[C@H](N)C(=O)O` [methionine] was “able to bind to and activate the umami receptor to different extents”; that for `N[C@@H](Cc1ccccc1)C(=O)O` [phenylalanine] was “able to bind to and activate the umami receptor to different extents”. Same read-out and setting: next, `N[C@@H](CO)C(=O)O` [serine]: “able to bind to and activate the umami receptor to different extents”. Consider `N[C@@H](Cc1c[nH]c2ccccc12)C(=O)O` [tryptophan], for which the “binding to and activation” value is “able to bind to and activate the umami receptor to different extents”. On the same count and under the same terms, next, `N[C@@H](Cc1ccc(O)cc1)C(=O)O` [tyrosine]: “able to bind to and activate the umami receptor to different extents”.

The subject of the next assay is cats. Nature of the assay: 2-bottle choice difference test of tastant solutions in water, intake by cats. Set-up: species or system cat. Particulars: amino acids of the second group. The procedure:
Cats were allowed access to water containing either 25 mM proline+25 mM histidine with a composition comprising 50 mM histidine. The methodology used a 2-bottle choice test with 24 cats (the final number of cats for each test can vary due to data being discarded by spillage, etc.). Cats were housed individually during trial periods and had free access to water available between testing periods. The test involved a choice test between the tastant/mixture at a given concentration dissolved in deionised water versus deionised water only or another tastant/mixture. Control was made for positional bias (e.g. A/B exposure 1 and B/A exposure 2) and evaporation loss. The testing time was 36 hours (i.e. 18 hours per day, allowing a two-day crossover). Following two consecutive days of each testing, cats had two consecutive days of rest. Cats were offered a dry diet as a single meal at the start of the test period for one hour, calculated to meet the individual requirements for each cat.
For `N[C@@H](CC(=O)O)C(=O)O` [aspartic acid], the “acceptance (flavour effect) in in vivo tests” value (“acceptance (flavour effect)” for short) is listed as “positive acceptance”.

Turning to `N[C@@H](CSSC[C@H](N)C(=O)O)C(=O)O` [cystine], the “acceptance (flavour effect)” value is “positive acceptance”. The same measure, in the same setting: next, `N[C@@H](CCC(=O)O)C(=O)O` [glutamic acid]: “positive acceptance”. Still for that read-out and setting: next, `NC(=O)CC[C@H](N)C(=O)O` [glutamine]: “positive acceptance”. Same read-out and setting: next, `O=C(O)[C@@H]1C[C@@H](O)CN1` [hydroxyproline]: “positive acceptance”; `CC[C@H](C)[C@H](N)C(=O)O` [isoleucine]: “positive acceptance”; `NCCCC[C@H](N)C(=O)O` [lysine]: “positive acceptance”. On to `NCCC[C@H](N)C(=O)O` [ornithine], for which the “acceptance (flavour effect)” value was “positive acceptance”. Regarding `O=C(O)[C@@H]1CCCN1` [proline], the “acceptance (flavour effect)” value is reported as “positive acceptance”. Consider `C[C@@H](O)[C@H](N)C(=O)O` [threonine], for which the “acceptance (flavour effect)” value is reported as “positive acceptance”. Same read-out and setting: next, `CC(C)[C@H](N)C(=O)O` [valine]: “positive acceptance”.
